Read-outs that look alike come from different tables or passages of the source.
Columns and labels:
[1] = Bioavailability study: Latrepirdine concentration in brain tissue after oro-gastric gavage; conditions: for Concentration of Latrepirdine in brain tissue: 10 mg/kg oro-gastric gavage, suspension in corn oil, rat, 10 mg/kg
Protocol: (§1) Those crystalline polymorphs and DMB-I were used in an animal study to evaluate absorption of crystalline forms of Latrepirdine from gastrointestinal tract into blood serum and brain tissues of the animals. Male Wistar rats were used in animal study. Rats were randomly divided into 5 groups, each group containing 28 animals, for administration of respective polymorphic forms of Latrepirdine. Respective polymorphic form of Latrepirdine was administered by oro-gastric gavage as a suspension in corn oil at a dose of 10 mg/kg. Animals were euthanized at 15, 30, 60, and 120 min after administration of Latrepirdine (7 animals at each timepoint) followed by collection of blood serum and brain tissue samples that were analyzed for Latrepirdine content by LCMS. Analyses were performed using Prominence LCMS-850 equipped with Kinetex C18 Phenomenex column. Statistical bi-factorial ANOVA analysis of analytical data was performed using Statistica-7.1. software.

[2] = Bioavailability study: Latrepirdine concentration in blood serum after oro-gastric gavage
Protocol: as §1

[3] = rat, in vivo, po
Protocol: as §1

[4] = rat, in vivo, po; remark: listed apart in the source
Protocol: as §1

In the case of `Cc1ccc2c(c1)c1c(n2CCc2ccc(C)nc2)CCN(C)C1` [Polymorph C, 2,8-dimethyl-5-[2-(6-methylpyridin-3-yl)ethyl]-3,4-dihydro-1H-pyrido[4,3-b]indole], the “Concentration of Latrepirdine in brain tissue” value (from here on “Concentration … in brain tissue”) ([1]; 15 min after administration, listed as C) is reported as 25.1 ng/mL, the “Concentration … in brain tissue” value ([1]; 30 min after administration, listed as C) is reported as 15.0 ng/mL and the “Concentration … in brain tissue” value ([1]; 60 min after administration, listed as C) is reported as 32.1 ng/mL. For the same compound, the “Concentration … in brain tissue” value ([1]; 120 min after administration, listed as C) was 39.1 ng/mL, the “Concentration of Latrepirdine in blood serum” value (“Concentration … in blood serum” for short) ([2]; 15 min after administration, 10 mg/kg oro-gastric gavage, suspension in corn oil, rat, listed as C, 10 mg/kg) was 7.4 ng/mL and the “Concentration … in blood serum” value ([2]; 30 min after administration, 10 mg/kg oro-gastric gavage, suspension in corn oil, rat, listed as C, 10 mg/kg) was 6.8 ng/mL. For the same compound, the “Concentration … in blood serum” value ([2]; 60 min after administration, 10 mg/kg oro-gastric gavage, suspension in corn oil, rat, listed as C, 10 mg/kg) was 6.7 ng/mL and the “Concentration … in blood serum” value ([2]; 120 min after administration, 10 mg/kg oro-gastric gavage, suspension in corn oil, rat, listed as C, 10 mg/kg) was 7.0 ng/mL.
For `Cc1ccc2c(c1)c1c(n2CCc2ccc(C)nc2)CCN(C)C1` [Polymorph B, 2,8-dimethyl-5-[2-(6-methylpyridin-3-yl)ethyl]-3,4-dihydro-1H-pyrido[4,3-b]indole], the “Concentration … in brain tissue” value ([1]; 15 min after administration, listed as B) was 23.5 ng/mL, the “Concentration … in brain tissue” value ([1]; 30 min after administration, listed as B) was 34.2 ng/mL and the “Concentration … in brain tissue” value ([1]; 60 min after administration, listed as B) was 54.4 ng/mL. For the same compound, the “Concentration … in brain tissue” value ([1]; 120 min after administration, listed as B) was 29.7 ng/mL, the “Concentration … in blood serum” value ([2]; 15 min after administration, 10 mg/kg oro-gastric gavage, suspension in corn oil, rat, listed as B, 10 mg/kg) was 5.9 ng/mL and the “Concentration … in blood serum” value ([2]; 30 min after administration, 10 mg/kg oro-gastric gavage, suspension in corn oil, rat, listed as B, 10 mg/kg) was 5.6 ng/mL. For the same compound, the “Concentration … in blood serum” value ([2]; 60 min after administration, 10 mg/kg oro-gastric gavage, suspension in corn oil, rat, listed as B, 10 mg/kg) was 7.4 ng/mL and the “Concentration … in blood serum” value ([2]; 120 min after administration, 10 mg/kg oro-gastric gavage, suspension in corn oil, rat, listed as B, 10 mg/kg) was 1.0 ng/mL.
In the case of `Cc1ccc2c(c1)c1c(n2CCc2ccc(C)nc2)CCN(C)C1` [Polymorph DMB-I, 2,8-dimethyl-5-[2-(6-methylpyridin-3-yl)ethyl]-3,4-dihydro-1H-pyrido[4,3-b]indole], the “Median values of Cmax compared among the five tested polymorphic forms” value [3] is reported as “highest value”, the “Concentration … in brain tissue” value ([1]; 15 min after administration, listed as DMB-I) is reported as 45.1 ng/mL and the “Concentration … in brain tissue” value ([1]; 30 min after administration, listed as DMB-I) is reported as 26.8 ng/mL. The “Concentration … in brain tissue” value ([1]; 60 min after administration, listed as DMB-I) was 106.0 ng/mL, the “Concentration … in brain tissue” value ([1]; 120 min after administration, listed as DMB-I) was 49.8 ng/mL and the “Cmax exceeds the Cmax of other polymorphic forms by” value ([1]; brain tissue, intragastric administration, versus the other four polymorphic forms) was 32-260%. For the same compound, the “Concentration … in blood serum” value ([2]; 15 min after administration, 10 mg/kg oro-gastric gavage, suspension in corn oil, rat, listed as DMB-I, 10 mg/kg) was 12.8 ng/mL, the “Concentration … in blood serum” value ([2]; 30 min after administration, 10 mg/kg oro-gastric gavage, suspension in corn oil, rat, listed as DMB-I, 10 mg/kg) was 10.0 ng/mL and the “Concentration … in blood serum” value ([2]; 60 min after administration, 10 mg/kg oro-gastric gavage, suspension in corn oil, rat, listed as DMB-I, 10 mg/kg) was 9.7 ng/mL. For the same compound, the “Concentration … in blood serum” value ([2]; 120 min after administration, 10 mg/kg oro-gastric gavage, suspension in corn oil, rat, listed as DMB-I, 10 mg/kg) was 10.4 ng/mL, the “Cmax exceeds the Cmax of other polymorphic forms by” value ([2]; blood plasma, intragastric administration, versus the other four polymorphic forms) was 12-240% and the Tmax ([2]; male, Wistar, rat, plasma, po, 10 mg/kg) was 15 min. For the same compound, the “Median values of Cmax compared among the five tested polymorphic forms” value [4] was “highest value”.
For `Cc1ccc2c(c1)c1c(n2CCc2ccc(C)nc2)CCN(C)C1` [Polymorph A, 2,8-dimethyl-5-[2-(6-methylpyridin-3-yl)ethyl]-3,4-dihydro-1H-pyrido[4,3-b]indole], the “Concentration … in brain tissue” value ([1]; 15 min after administration, listed as A) was 22.4 ng/mL, the “Concentration … in brain tissue” value ([1]; 30 min after administration, listed as A) was 5.6 ng/mL and the “Concentration … in brain tissue” value ([1]; 60 min after administration, listed as A) was 76.8 ng/mL. The “Concentration … in brain tissue” value ([1]; 120 min after administration, listed as A) was 24.4 ng/mL, the “Concentration … in blood serum” value ([2]; 15 min after administration, 10 mg/kg oro-gastric gavage, suspension in corn oil, rat, listed as A, 10 mg/kg) was 2.0 ng/mL and the “Concentration … in blood serum” value ([2]; 60 min after administration, 10 mg/kg oro-gastric gavage, suspension in corn oil, rat, listed as A, 10 mg/kg) was 3.9 ng/mL. The “Concentration … in blood serum” value ([2]; 120 min after administration, 10 mg/kg oro-gastric gavage, suspension in corn oil, rat, listed as A, 10 mg/kg) was 2.0 ng/mL and the concentration at 30 min ([2]; male, Wistar, rat, serum, oral, 10 mg/kg, Concentration of Latrepirdine in blood serum, 30 min after administration, 10 mg/kg oro-gastric gavage, suspension in corn oil, rat) was 7 ng/mL.
In the case of `Cc1ccc2c(c1)c1c(n2CCc2ccc(C)nc2)CCN(C)C1` [Polymorph F, 2,8-dimethyl-5-[2-(6-methylpyridin-3-yl)ethyl]-3,4-dihydro-1H-pyrido[4,3-b]indole], the “Concentration … in brain tissue” value ([1]; 15 min after administration, listed as F) is reported as 20.2 ng/mL, the “Concentration … in brain tissue” value ([1]; 30 min after administration, listed as F) is reported as 32.2 ng/mL and the “Concentration … in brain tissue” value ([1]; 60 min after administration, listed as F) is reported as 68.5 ng/mL. The “Concentration … in brain tissue” value ([1]; 120 min after administration, listed as F) was 45.1 ng/mL, the “Concentration … in blood serum” value ([2]; 15 min after administration, 10 mg/kg oro-gastric gavage, suspension in corn oil, rat, listed as F, 10 mg/kg) was 4.8 ng/mL and the “Concentration … in blood serum” value ([2]; 30 min after administration, 10 mg/kg oro-gastric gavage, suspension in corn oil, rat, listed as F, 10 mg/kg) was 6.3 ng/mL. For the same compound, the “Concentration … in blood serum” value ([2]; 60 min after administration, 10 mg/kg oro-gastric gavage, suspension in corn oil, rat, listed as F, 10 mg/kg) was 9.4 ng/mL and the “Concentration … in blood serum” value ([2]; 120 min after administration, 10 mg/kg oro-gastric gavage, suspension in corn oil, rat, listed as F, 10 mg/kg) was 3.6 ng/mL.
